In ChEMBL document CHEMBL1201862, “PubChem BioAssay data set” (2004):
Several values for one entry are separate records, joined by “and”; a condition that tells them apart may be missing. Identical values can stand only once. Activity calls are given as the source filed them.

Assays:
[1] = Luminescence Cell-Based Dose Response HTS to Identify Inhibitors of 5'UTR Stem-Loop Driven Prion Protein mRNA Translation in H4 Neuroglioblastoma Cells. [Related pubchem assays: 1827 (Project Summary), 1813 (Primary HTS)]; format: functional
[2] = inhibitors of firefly luciferase expression or activity, dose response, H4 neuroglioma cells, luminescence (AID 1990); format: functional, cell-based
[3] = inhibitors of SNCA 5'UTR-driven reporter translation, confirmation, H4 neuroglioma cells, luminescence (AID 1988); format: functional, cell-based
Cytochrome P450 2C9 = Cytochrome P450 2C9 (Homo sapiens, UniProt P11712)
Sequence of Cytochrome P450 2C9 (P11712 whole entry): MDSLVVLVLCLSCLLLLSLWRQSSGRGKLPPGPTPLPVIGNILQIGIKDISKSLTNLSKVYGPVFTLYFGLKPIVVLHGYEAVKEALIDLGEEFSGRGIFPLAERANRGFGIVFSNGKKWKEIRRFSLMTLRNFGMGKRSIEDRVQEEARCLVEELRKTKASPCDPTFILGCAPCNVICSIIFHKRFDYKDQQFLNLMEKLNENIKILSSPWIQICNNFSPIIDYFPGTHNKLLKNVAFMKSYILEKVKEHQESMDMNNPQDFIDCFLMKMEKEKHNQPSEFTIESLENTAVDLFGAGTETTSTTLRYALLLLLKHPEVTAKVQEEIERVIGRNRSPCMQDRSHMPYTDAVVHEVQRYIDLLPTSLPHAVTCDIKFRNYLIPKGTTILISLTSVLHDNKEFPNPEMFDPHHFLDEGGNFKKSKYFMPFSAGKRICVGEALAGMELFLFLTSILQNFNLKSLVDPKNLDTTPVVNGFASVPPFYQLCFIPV

Cytochrome P450 1A2 = target: T1, Cytochrome P450 1A2 (Homo sapiens, UniProt P05177);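 note: PubChem cytochrome P450 panel assay, CYP1A2 panel member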
T1 sequence (P05177 whole entry): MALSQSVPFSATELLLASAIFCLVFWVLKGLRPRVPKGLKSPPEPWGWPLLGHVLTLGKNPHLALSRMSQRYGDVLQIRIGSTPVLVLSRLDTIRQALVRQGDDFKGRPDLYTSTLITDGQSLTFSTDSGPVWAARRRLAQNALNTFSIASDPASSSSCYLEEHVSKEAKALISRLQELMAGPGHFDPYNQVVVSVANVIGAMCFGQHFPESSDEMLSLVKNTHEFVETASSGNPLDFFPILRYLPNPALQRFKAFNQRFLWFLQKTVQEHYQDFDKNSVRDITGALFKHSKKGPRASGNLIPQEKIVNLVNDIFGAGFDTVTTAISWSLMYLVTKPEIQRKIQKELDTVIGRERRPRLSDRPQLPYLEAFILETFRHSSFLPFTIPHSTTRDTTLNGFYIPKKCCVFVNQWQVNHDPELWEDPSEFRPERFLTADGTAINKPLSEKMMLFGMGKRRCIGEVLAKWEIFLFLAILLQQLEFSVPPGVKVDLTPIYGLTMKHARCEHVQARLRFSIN

[4] = Luminescence Cell-Based Dose Retest to Confirm Inhibitors of Cancer Stem Cells. [Related pubchem assays (depositor defined):AID2717, AID2721]; format: functional; settings: Homo sapiens
[5] = target: T2, Rac GTPase-activating protein 1 (Homo sapiens, UniProt Q9H0H5); test: MgcRacGAP GTPase-activating activity inhibitors, confirmation, biochemical, ADP Hunter fluorescence, primary and confirmatory (AID 624330); format: functional
T2 sequence (Q9H0H5 whole entry): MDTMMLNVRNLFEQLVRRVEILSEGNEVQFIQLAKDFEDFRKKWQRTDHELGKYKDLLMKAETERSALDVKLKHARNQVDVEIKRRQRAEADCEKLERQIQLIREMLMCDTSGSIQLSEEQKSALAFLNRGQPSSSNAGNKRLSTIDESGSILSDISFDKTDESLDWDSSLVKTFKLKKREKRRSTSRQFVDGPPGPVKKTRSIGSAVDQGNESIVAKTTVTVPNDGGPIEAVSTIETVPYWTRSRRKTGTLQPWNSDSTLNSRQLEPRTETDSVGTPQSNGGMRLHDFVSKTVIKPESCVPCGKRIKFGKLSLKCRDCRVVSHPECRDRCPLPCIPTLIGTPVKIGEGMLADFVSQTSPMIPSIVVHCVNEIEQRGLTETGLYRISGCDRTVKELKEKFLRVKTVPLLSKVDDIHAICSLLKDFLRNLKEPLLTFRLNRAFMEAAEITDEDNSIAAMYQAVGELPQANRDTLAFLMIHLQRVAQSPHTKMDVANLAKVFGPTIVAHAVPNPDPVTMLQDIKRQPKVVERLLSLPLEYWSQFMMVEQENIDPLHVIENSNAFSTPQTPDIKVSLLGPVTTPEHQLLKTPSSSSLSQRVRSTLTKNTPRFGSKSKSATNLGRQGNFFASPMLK

[6] = target: T3, Heat shock factor protein 1 (Mus musculus, UniProt P38532); test: inhibition of MG132-induced HSE-luciferase signal, confirmation, cell-based, NIH3T3, luminescence, dose retest (AID 2382); format: functional;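 note: NIH3T3 fibroblasts with HSF1-driven luciferase reporter stressed by proteasome inhibitor MG132; luminescence from HSF1-driven luciferase expression after 8 hours of MG132 stress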
T3 sequence (P38532 whole entry): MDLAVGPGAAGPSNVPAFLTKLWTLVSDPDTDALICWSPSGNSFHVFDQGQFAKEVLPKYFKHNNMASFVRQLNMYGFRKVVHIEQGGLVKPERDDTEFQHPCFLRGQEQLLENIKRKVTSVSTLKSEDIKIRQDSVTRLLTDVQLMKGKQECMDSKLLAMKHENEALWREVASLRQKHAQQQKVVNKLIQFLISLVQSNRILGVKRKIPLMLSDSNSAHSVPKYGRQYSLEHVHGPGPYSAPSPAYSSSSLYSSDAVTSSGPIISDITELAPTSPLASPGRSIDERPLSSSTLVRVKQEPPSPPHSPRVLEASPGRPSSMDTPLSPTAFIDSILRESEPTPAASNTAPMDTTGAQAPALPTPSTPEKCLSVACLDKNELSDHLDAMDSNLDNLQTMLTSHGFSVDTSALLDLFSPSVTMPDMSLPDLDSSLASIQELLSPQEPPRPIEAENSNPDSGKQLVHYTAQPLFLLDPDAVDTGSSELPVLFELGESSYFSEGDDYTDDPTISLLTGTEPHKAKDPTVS

[7] = Luminescence Cell-Based Dose Response HTS to Identify Activators of Luciferase Translation or Activity in H4 […] Cells. [Related pubchem assays: 1829 (Project Summary), 1814 (Primary HTS)]; format: functional
Cytochrome P450 2D6 = Cytochrome P450 2D6 (Homo sapiens, UniProt P10635);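 note: CYP2D6 member of a cytochrome P450 panel assay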
Sequence of Cytochrome P450 2D6 (P10635 whole entry): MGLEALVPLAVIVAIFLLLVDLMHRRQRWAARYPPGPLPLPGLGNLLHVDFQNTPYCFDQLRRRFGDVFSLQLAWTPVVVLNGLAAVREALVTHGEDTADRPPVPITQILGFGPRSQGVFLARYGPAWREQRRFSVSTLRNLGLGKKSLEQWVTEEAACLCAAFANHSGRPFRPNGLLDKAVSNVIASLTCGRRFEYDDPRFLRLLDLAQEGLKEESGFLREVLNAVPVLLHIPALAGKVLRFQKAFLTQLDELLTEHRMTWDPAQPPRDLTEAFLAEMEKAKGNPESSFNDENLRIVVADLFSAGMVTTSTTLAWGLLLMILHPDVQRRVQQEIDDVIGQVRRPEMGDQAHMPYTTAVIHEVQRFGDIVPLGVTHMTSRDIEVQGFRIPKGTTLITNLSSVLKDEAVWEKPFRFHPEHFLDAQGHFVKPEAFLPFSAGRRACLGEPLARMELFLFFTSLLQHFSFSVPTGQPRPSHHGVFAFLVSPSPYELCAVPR

H4 = test: Luminescence Cell-Based Dose Response HTS to Identify Activators of 5'UTR Stem-Loop Driven Prion Protein mRNA Translation in H4 Neuroglioblastoma Cells. [Related pubchem assays: 1829 (Project Summary), 1814 (Primary HTS)]; format: functional; settings: Homo sapiens
Cytochrome P450 3A4 = Cytochrome P450 3A4 (Homo sapiens, UniProt P08684);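 note: CYP3A4 tested as one member of a cytochrome P450 panel screen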
Sequence of Cytochrome P450 3A4 (P08684 whole entry): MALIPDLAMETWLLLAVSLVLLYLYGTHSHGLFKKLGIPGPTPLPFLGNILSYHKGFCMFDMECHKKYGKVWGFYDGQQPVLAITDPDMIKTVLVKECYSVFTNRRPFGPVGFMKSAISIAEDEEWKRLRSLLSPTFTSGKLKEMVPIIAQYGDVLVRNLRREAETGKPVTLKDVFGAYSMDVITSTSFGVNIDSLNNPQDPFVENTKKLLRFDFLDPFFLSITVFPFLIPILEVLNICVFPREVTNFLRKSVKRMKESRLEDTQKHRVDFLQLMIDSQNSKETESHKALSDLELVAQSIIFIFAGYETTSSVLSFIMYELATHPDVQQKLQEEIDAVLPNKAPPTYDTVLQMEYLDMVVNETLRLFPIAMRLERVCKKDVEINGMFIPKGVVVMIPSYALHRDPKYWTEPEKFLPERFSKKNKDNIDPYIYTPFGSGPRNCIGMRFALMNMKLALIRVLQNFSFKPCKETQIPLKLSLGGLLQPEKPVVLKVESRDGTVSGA

Cc1c(CCC(=O)N[C@@H](C)C(=O)O)c(=O)oc2cc3oc4c(c3cc12)CCCC4
EC50 [1]: 17 µM (active)
EC50 [2]: 12.7 µM (active)
EC50 [3]: 14.4 µM (active)

COc1ccc(Oc2ncc3nc(-c4cccc(C#N)c4)c(=O)n(CCC#N)c3n2)cc1
AC50 (Cytochrome P450 2C9): 25.1 µM (inconclusive)
AC50 (Cytochrome P450 1A2): 25.1 µM (inconclusive)

CN1CCN(S(=O)(=O)c2cccc(C(=O)Nc3cc(C(F)(F)F)ccc3N3CCCCC3)c2)CC1
AC50 [4]: 2.5 µM (active)

COc1cc(/C=N/NC(=O)c2cc(C)oc2C)ccc1O
IC50 [5]: 37.6 µM (active)
EC50 [6]: > 195 µM (not active)

Cc1ccc(-c2ccc(=O)n(CCC(=O)NCCN3CCCCC3C)n2)cc1 (stereo unspecified)
EC50 [6]: > 195 µM (not active)

COc1ccc2c(c1)CC/C2=N\OC(=O)c1cccc(C)c1
EC50 [7]: 0.105 µM (active)

CC(=O)N/N=C(\C)CC(=O)NC(C)(C)C
EC50 [6]: > 195 µM (not active)

CN(C)CCC[C@@]1(c2ccc(F)cc2)OCc2cc(C#N)ccc21 [ESCITALOPRAM]
AC50 (Cytochrome P450 2D6): 39.8 µM (inconclusive) and 12.6 µM (inconclusive)

C=C1/C(=C\C=C2/CCC[C@]3(C)[C@@H]([C@H](C)/C=C/[C@@H](O)C4CC4)CC[C@@H]23)C[C@@H](O)C[C@@H]1O [CALCIPOTRIENE]
AC50 [4]: 8.81 µM (active)

CCOc1ccccc1NC(=O)CSc1nnc(-c2ccco2)n1Cc1ccco1
EC50 [1]: > 120 µM (not active)
EC50 [2]: > 120 µM (not active)
EC50 [3]: > 120 µM (not active)

CCOC(=O)Cn1c(CCC(=O)O)ccc1-c1ccc(F)cc1
EC50 [6]: > 195 µM (not active)

COc1ccc(S(=O)(=O)NCC2CCCN(Cc3ccc(C)o3)C2)cc1 (stereo unspecified)
EC50 [6]: > 195 µM (not active)

CSc1ccc2nnc(-c3cccc(F)c3)n2n1
AC50 (Cytochrome P450 2C9): 39.8 µM (inconclusive)

CCCc1[nH]nc2c1/C(=N/O)CC(c1ccccc1)C2 (stereo unspecified)
EC50 [1]: > 120 µM (not active)
EC50 [2]: 12.8 µM (active)
EC50 [3]: 13.4 µM (active)

CN1CCN(CC(=O)Nc2nnc(-c3cccs3)s2)CC1
EC50 [6]: > 195 µM (not active)

CC(Oc1ccccc1)C(=O)NC1=NCCS1 (stereo unspecified)
EC50 (H4): 18.9 µM (active)
EC50 [7]: 94.2 µM (active)

O=[N+]([O-])c1ccccc1CCc1cnc(Cl)s1
EC50 [6]: > 195 µM (not active)

COc1ccc(Oc2ncc3nc(CCc4ccccc4)c(=O)n(C)c3n2)cc1
AC50 (Cytochrome P450 3A4): 7.94 µM (inconclusive)

COC(=O)C1C(=O)C2=C(CC1C)NC(=O)CC2c1cccc(C)c1 (stereo unspecified)
AC50 [4]: > 195 µM (inactive)
AC50 (Cytochrome P450 2C9): 15.8 µM (inconclusive)

O=[N+]([O-])c1ccc(N2CCN(Cc3ccccc3)CC2)c(S(=O)(=O)N2CCOCC2)c1
AC50 (Cytochrome P450 3A4): 12.6 µM (inconclusive)

CCC(CC)C(=O)Nc1cccc(/C(C)=N/NC(=O)c2c(Br)cnn2C)c1
AC50 (Cytochrome P450 2C9): 8.91 µM (inconclusive)
AC50 (Cytochrome P450 1A2): 12.6 µM (inconclusive)

COc1ccc2c(c1)c(=O)oc1c(C)c(OCC(=O)N3CCc4ccccc4C3)ccc12
AC50 (Cytochrome P450 3A4): 3.16 µM (inconclusive)

COc1ccc(CNC(=O)Cc2csc(Nc3nc(S)nc4ccccc34)n2)cc1
AC50 (Cytochrome P450 2D6): 0.447 µM (inconclusive)

O=C1Nc2ccccc2C1=Nc1sc2c(c1C(=O)NCCc1ccccc1)CCCC2
AC50 (Cytochrome P450 2D6): 4.47 µM (inconclusive)

N#Cc1ccsc1NC(=O)COC(=O)c1ccc2ccccc2c1
EC50 (H4): 17.5 µM (active)

CC1CC1C(=O)OCc1cc(=O)n2cc(Br)ccc2n1 (stereo unspecified)
EC50 (H4): > 120 µM (not active)
EC50 [7]: 0.102 µM (active)

Cc1noc(C)c1-c1ccc2ncnc(NCCN3CCOCC3)c2c1
AC50 (Cytochrome P450 2D6): 31.6 µM (inconclusive)

Cc1onc(-c2ccccc2)c1C(=O)N1CCN(S(=O)(=O)c2ccc(Cl)cc2)CC1
EC50 [1]: > 120 µM (not active)
EC50 [2]: > 120 µM (not active)
EC50 [3]: > 120 µM (not active)

O=C1CN=C(c2cccs2)c2c(sc3c2CCCC3)N1
AC50 (Cytochrome P450 2C9): 35.5 µM (inconclusive)

CCOC(=O)Cn1nnc2c(sc3nc4c(c(-c5ccccc5)c32)CCC4)c1=O
EC50 [1]: 3.88 µM (active)
EC50 [2]: > 120 µM (not active)
EC50 [3]: > 120 µM (not active)

CC(C)CCNc1nc(N)c([N+](=O)[O-])c(NCC2CCCO2)n1 (stereo unspecified)
EC50 [1]: > 120 µM (not active)
EC50 [2]: 12 µM (active)
EC50 [3]: > 120 µM (not active)

Cc1ccc(NC(=O)CN2C(=O)NC3(CCCC3)C2=O)c(Cl)c1
EC50 [6]: > 195 µM (not active)

O=S(=O)(c1ccc(F)cc1)N1CCCC(CO)C1 (stereo unspecified)
AC50 (Cytochrome P450 3A4): 25.1 µM (inconclusive)

Cc1cccc(C(=O)N/N=C/c2ccc(OC3CSC3)cc2)c1
AC50 [4]: 1.71 µM (active)

COc1ccc(-n2c(C)nnc2O)cc1OC
AC50 (Cytochrome P450 2C9): 1.78 µM (inconclusive)

COc1ccc2c(c1OC)C(=O)OC2Nc1ccc(S(=O)(=O)N=C(N)N)cc1 (stereo unspecified)
EC50 [6]: > 195 µM (not active)

CCOc1ccccc1C(=O)Nc1ccc(NC(=O)c2ccccc2)cc1
EC50 [6]: > 195 µM (not active)

CCOc1ccc(C(=O)Nc2ccc3nc(N4CCN(CC)CC4)cc(C)c3c2)cc1
EC50 [1]: > 120 µM (not active)
EC50 [2]: 10.3 µM (active)
EC50 [3]: > 120 µM (not active)

COc1cc(S(=O)(=O)N2CCCCCC2)c(OC)cc1Br
AC50 [4]: 1.01 µM (active)

CC(C)(C)C(=O)N1CCN(CCN2C(=O)c3cccc4cccc(c34)C2=O)CC1
EC50 [6]: > 195 µM (not active)

COc1ccc(-c2nc3cnc(N4CCNCC4)nc3n(Cc3cccs3)c2=O)cc1
AC50 (Cytochrome P450 2C9): 39.8 µM (inconclusive)

CCOC(=O)c1c(C)[nH]c(C(=O)Nc2ccc(NC(C)=O)cc2)c1C
EC50 [1]: 3.99 µM (active)
EC50 [2]: 10.9 µM (active)
EC50 [3]: 10.9 µM (active)

Cc1onc(-c2c(Cl)cccc2Cl)c1C(=O)Nc1ccc2c(c1)OCO2
AC50 (Cytochrome P450 3A4): 1 µM (inconclusive)

CCN(CC)C1=NC(=[N+](CC)CC)c2ccccc21
AC50 (Cytochrome P450 2D6): 14.1 µM (inconclusive)

C[C@H](C(=O)c1ccccc1)[C@@H](c1ccccc1)N1CCOCC1
AC50 (Cytochrome P450 3A4): 0.501 µM (inconclusive)

CCN(CC)S(=O)(=O)c1ccc(OC)c(NC(=O)CSc2ccccc2)c1
AC50 (Cytochrome P450 3A4): 31.6 µM (inconclusive)

COc1ccc(-c2oc3ccc(N4CCOCC4)cc3c2C#CCO)cc1
AC50 [4]: 3.96 µM (active)

Cc1ccc(N2C(=O)c3ccccc3C2Nc2ccccc2F)nc1 (stereo unspecified)
EC50 [6]: > 195 µM (not active)

CCCCCn1c(=O)c(C(=O)Nc2ccccn2)c(O)c2ccccc21
EC50 [1]: 11.2 µM (active)
EC50 [2]: > 120 µM (not active)
EC50 [3]: 9.51 µM (active)
EC50 [6]: > 195 µM (not active)

COc1ccccc1-c1cc(NCc2cccs2)ncn1
AC50 (Cytochrome P450 3A4): 31.6 µM (inconclusive)

CC(C)CN(C(=O)CCCSc1nc2ccccc2[nH]1)c1c(N)n(Cc2ccccc2)c(=O)[nH]c1=O
EC50 [6]: > 195 µM (not active)
